pIC50: −log10 of the molar value.
How the values were obtained:
PI3K = PI3K (Homo sapiens, UniProt P42336); assay: Fluorescence polarization assay for PI3K; format: biochemical; conditions: PI3Kα; read-out: PI3Kα IC50;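 further: PI3K kinase reaction on PIP2 with ATP, 30-60 min, product sensed by GST-GRP with red probe in fluorescence polarization (mP), controls without enzyme and at zero time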
prostate line LNCap = assay: In vitro cell culture growth assay (MTS), LNCap; format: cell-based, human; conditions: LNCap cells, three days after drug treatment
breast line MDA468 = assay: In vitro cell culture growth assay (MTS), MDA468; format: cell-based, human; conditions: MDA468 cells, three days after drug treatment
Summary of the method: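 MDA468 or LNCap cells received inhibitors one day after plating and were grown for three days. Viable cell density read by MTS conversion, absorbance 490 nm, expressed as percent of control growth versus vehicle-treated cells on the same plate.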

PI3K, sequence (P42336 whole entry): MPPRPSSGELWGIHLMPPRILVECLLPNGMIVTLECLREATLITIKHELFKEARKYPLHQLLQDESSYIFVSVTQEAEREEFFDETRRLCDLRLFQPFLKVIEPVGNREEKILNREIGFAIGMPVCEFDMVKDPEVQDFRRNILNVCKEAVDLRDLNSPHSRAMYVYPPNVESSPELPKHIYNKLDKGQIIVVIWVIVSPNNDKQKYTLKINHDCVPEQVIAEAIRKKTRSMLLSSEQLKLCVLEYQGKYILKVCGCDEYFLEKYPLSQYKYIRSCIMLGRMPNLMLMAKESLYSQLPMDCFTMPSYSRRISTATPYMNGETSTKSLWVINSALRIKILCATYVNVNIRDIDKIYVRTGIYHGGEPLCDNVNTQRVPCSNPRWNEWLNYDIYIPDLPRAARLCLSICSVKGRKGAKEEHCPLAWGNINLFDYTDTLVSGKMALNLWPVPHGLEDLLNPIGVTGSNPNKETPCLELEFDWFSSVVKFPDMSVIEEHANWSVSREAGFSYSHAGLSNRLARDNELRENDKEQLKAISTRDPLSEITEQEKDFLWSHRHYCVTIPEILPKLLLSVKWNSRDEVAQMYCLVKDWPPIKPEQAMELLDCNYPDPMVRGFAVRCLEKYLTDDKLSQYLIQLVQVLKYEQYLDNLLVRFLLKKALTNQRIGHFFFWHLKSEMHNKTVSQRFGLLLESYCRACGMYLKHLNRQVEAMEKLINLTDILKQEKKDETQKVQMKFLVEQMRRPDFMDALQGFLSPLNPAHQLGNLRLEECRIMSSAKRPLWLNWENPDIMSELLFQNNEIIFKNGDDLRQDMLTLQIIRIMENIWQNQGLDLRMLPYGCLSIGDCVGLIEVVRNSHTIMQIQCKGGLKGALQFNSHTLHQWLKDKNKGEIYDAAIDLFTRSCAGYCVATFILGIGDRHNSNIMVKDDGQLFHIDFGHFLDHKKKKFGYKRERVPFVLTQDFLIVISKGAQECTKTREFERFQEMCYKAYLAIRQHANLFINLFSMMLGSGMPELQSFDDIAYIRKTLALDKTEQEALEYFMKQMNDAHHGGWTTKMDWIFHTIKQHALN
PI3K, sequence (P27986 whole entry partner): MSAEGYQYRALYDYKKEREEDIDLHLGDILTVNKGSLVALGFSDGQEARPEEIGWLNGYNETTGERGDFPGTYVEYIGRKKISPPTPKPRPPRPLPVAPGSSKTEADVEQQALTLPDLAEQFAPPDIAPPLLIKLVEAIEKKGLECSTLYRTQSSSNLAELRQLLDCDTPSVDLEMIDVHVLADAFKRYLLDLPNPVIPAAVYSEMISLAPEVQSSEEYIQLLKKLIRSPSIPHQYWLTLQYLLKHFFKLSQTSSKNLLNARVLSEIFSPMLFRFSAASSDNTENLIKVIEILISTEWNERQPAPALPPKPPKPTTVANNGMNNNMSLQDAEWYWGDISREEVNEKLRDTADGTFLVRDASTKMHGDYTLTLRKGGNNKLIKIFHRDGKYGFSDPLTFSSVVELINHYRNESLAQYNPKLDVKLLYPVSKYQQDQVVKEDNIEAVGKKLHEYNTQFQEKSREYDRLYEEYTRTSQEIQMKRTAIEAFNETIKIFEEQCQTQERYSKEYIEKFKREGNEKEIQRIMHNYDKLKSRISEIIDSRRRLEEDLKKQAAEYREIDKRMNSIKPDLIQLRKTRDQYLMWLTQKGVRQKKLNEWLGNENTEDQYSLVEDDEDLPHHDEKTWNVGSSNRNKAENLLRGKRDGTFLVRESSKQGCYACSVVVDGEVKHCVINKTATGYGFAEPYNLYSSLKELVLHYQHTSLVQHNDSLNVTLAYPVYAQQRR

CNC(=O)Nc1ccc(-c2nc(N3CCOCC3)c3cnn(C4CCN(Cc5cccc(F)c5)CC4)c3n2)cc1 [Compound 672, 1-(4-{1-[1-(3-fluorobenzyl)piperidin-4-yl]-4-morpholin-4-yl-1H-pyrazolo[3,4-d]pyrimidin-6-yl}phenyl)-3-methylurea]
pIC50 (PI3K): 7.52
pIC50 (prostate line LNCap): 7.57
pIC50 (breast line MDA468): 6.82

O=C(c1ccco1)N1CCC(n2ncc3c(N4CCOCC4)nc(-c4cccc(O)c4)nc32)CC1 [Example 22]
pIC50 (PI3K): 7.51
pIC50 (prostate line LNCap; Homo sapiens, LNCaP, 72 h): 6.52
pIC50 (breast line MDA468; Homo sapiens, 72 h): 6.05

CNC(=O)Nc1ccc(-c2nc(N3CCOCC3)c3cnn(C4CCN(C(=O)c5ccc(C)cc5)CC4)c3n2)cc1 [Compound 613, 1-methyl-3-(4-{1-[1-(4-methylbenzoyl)piperidin-4-yl]-4-morpholin-4-yl-1H-pyrazolo[3,4-d]pyrimidin-6-yl}phenyl)urea]
pIC50 (PI3K): 7.38
pIC50 (prostate line LNCap; Homo sapiens, LNCaP, 72 h): > 7.57
pIC50 (breast line MDA468; Homo sapiens, 72 h): 7.07

O=C(Nc1ccncc1)Nc1ccc(-c2nc(N3CCOCC3)c3cnn(C4CCNCC4)c3n2)cc1 [Compound 780, 1-[4-(4-morpholin-4-yl-1-piperidin-4-yl-1H-pyrazolo[3,4-d]pyrimidin-6-yl)phenyl]-3-pyridin-4-ylurea]
pIC50 (PI3K): 7.80
pIC50 (prostate line LNCap; Homo sapiens, LNCaP, 72 h): 5.66
pIC50 (breast line MDA468; Homo sapiens, 72 h): 5.82

CNC(=O)Nc1ccc(-c2nc(N3CCOCC3)c3cnn(C4CCN(C(=O)c5ccccc5)CC4)c3n2)cc1 [Compound 580, 1-{4-[1-(1-benzoylpiperidin-4-yl)-4-morpholin-4-yl-1H-pyrazolo[3,4-d]pyrimidin-6-yl]phenyl}-3-methylurea]
pIC50 (PI3K): 7.20
pIC50 (prostate line LNCap; Homo sapiens, LNCaP, 72 h): > 7.57
pIC50 (breast line MDA468; Homo sapiens, 72 h): 7.57

O=C(Cc1ccccc1)N1CCC(n2ncc3c(N4CCOCC4)nc(-c4ccc5[nH]ccc5c4)nc32)CC1 [Compound 242, 6-(1H-indol-5-yl)-4-morpholin-4-yl-1-[1-(phenylacetyl)piperidin-4-yl]-1H-pyrazolo[3,4-d]pyrimidine]
pIC50 (PI3K): 6.16
pIC50 (prostate line LNCap; Homo sapiens, LNCaP, 72 h): 6.15
pIC50 (breast line MDA468; Homo sapiens, 72 h): 5.52

O=C(Nc1ccncc1)Nc1ccc(-c2nc(N3CCOCC3)c3cnn(C4CCN(C(=O)c5ccccc5)CC4)c3n2)cc1 [Example 384, 1-{4-[1-(1-benzoylpiperidin-4-yl)-4-morpholin-4-yl-1H-pyrazolo[3,4-d]pyrimidin-6-yl]phenyl}-3-pyridin-4-ylurea]
pIC50 (PI3K): 7.72
pIC50 (prostate line LNCap; Homo sapiens, LNCaP, 72 h): 7.38
pIC50 (breast line MDA468; Homo sapiens, 72 h): 7.00

CC(C)C(=O)N1CCC(n2ncc3c(N4CCOCC4)nc(-c4ccc(NC(=O)Nc5ccncc5)cc4)nc32)CC1 [Compound 829, 1-{4-[1-(1-isobutyrylpiperidin-4-yl)-4-morpholin-4-yl-1H-pyrazolo[3,4-d]pyrimidin-6-yl]phenyl}-3-pyridin-4-ylurea]
pIC50 (PI3K): 7.42
pIC50 (prostate line LNCap; Homo sapiens, LNCaP, 72 h): 7.60
pIC50 (breast line MDA468; Homo sapiens, 72 h): 7.54

CNC(=O)Nc1ccc(-c2nc(N3CCOCC3)c3cnn(C4CCN(Cc5cccnc5)CC4)c3n2)cc1F [Example 350, 1-(2-fluoro-4-{4-morpholin-4-yl-1-[1-(pyridin-3-ylmethyl)piperidin-4-yl]-1H-pyrazolo[3,4-d]pyrimidin-6-yl}phenyl)-3-methylurea]
pIC50 (PI3K): 6.61
pIC50 (prostate line LNCap; Homo sapiens, LNCaP, 72 h): 7.57
pIC50 (breast line MDA468; Homo sapiens, 72 h): 6.70

C=CCONC(=O)Nc1ccc(-c2nc(N3CCOCC3)c3cnn(-c4ccccc4)c3n2)cc1 [Compound 542, 1-(allyloxy)-3-[4-(4-morpholin-4-yl-1-phenyl-1H-pyrazolo[3,4-d]pyrimidin-6-yl)phenyl]urea]
pIC50 (PI3K): 6.05
pIC50 (prostate line LNCap; Homo sapiens, LNCaP, 72 h): 5.52
pIC50 (breast line MDA468; Homo sapiens, 72 h): 4.22

COC(=O)Nc1ccc(-c2nc(N3CCOCC3)c3cnn(C4CCN(C(=O)c5ccccn5)CC4)c3n2)cc1 [Example 441, methyl (4-{4-morpholin-4-yl-1-[1-(pyridin-2-ylcarbonyl)piperidin-4-yl]-1H-pyrazolo[3,4-d]pyrimidin-6-yl}phenyl)carbamate]
pIC50 (PI3K): 5.72
pIC50 (prostate line LNCap; Homo sapiens, LNCaP, 72 h): 6.70
pIC50 (breast line MDA468; Homo sapiens, 72 h): 6.22

OC1CCC(n2ncc3c(N4CCOCC4)nc(-c4ccc5[nH]ccc5c4)nc32)CC1 (stereo not drawn) [Compound 152, 4-[6-(1H-indol-5-yl)-4-morpholin-4-yl-1H-pyrazolo[3,4-d]pyrimidin-1-yl]cyclohexanol]
pIC50 (PI3K): 5.95
pIC50 (prostate line LNCap; Homo sapiens, LNCaP, 72 h): 6.22
pIC50 (breast line MDA468; Homo sapiens, 72 h): 5.64

NNC(=O)Nc1ccc(-c2nc(N3CCOCC3)c3cnn(-c4ccccc4)c3n2)cc1 [Compound 538, N-[4-(4-morpholin-4-yl-1-phenyl-1H-pyrazolo[3,4-d]pyrimidin-6-yl)phenyl]hydrazinecarboxamide]
pIC50 (PI3K): 6.77
pIC50 (prostate line LNCap; Homo sapiens, LNCaP, 72 h): 5.28
pIC50 (breast line MDA468; Homo sapiens, 72 h): 5.10

O=C(NCCF)Nc1ccc(-c2nc(N3CCOCC3)c3cnn(C4CCN(C(=O)c5cccnc5)CC4)c3n2)cc1 [Compound 548, 1-(2-fluoroethyl)-3-(4-{4-morpholin-4-yl-1-[1-(pyridin-3-ylcarbonyl)piperidin-4-yl]-1H-pyrazolo[3,4-d]pyrimidin-6-yl}phenyl)urea]
pIC50 (PI3K): 6.27
pIC50 (prostate line LNCap; Homo sapiens, LNCaP, 72 h): 6.20
pIC50 (breast line MDA468; Homo sapiens, 72 h): 6.28

CNC(=O)Nc1ccc(-c2nc(N3CCOCC3)c3cnn(C4CCN(C)CC4)c3n2)cc1 [Compound 401, 1-methyl-3-{4-[1-(1-methylpiperidin-4-yl)-4-morpholin-4-yl-1H-pyrazolo[3,4-d]pyrimidin-6-yl]phenyl}urea]
pIC50 (PI3K): 6.68
pIC50 (prostate line LNCap; Homo sapiens, LNCaP, 72 h): 6.00
pIC50 (breast line MDA468; Homo sapiens, 72 h): 5.42

CC(C)N1CCC(n2ncc3c(N4CCOCC4)nc(-c4ccc5[nH]ccc5c4)nc32)CC1 [Compound 488, 6-(1H-indol-5-yl)-1-(1-isopropylpiperidin-4-yl)-4-morpholin-4-yl-1H-pyrazolo[3,4-d]pyrimidine]
pIC50 (PI3K): 5.43
pIC50 (prostate line LNCap; Homo sapiens, LNCaP, 72 h): 5.60
pIC50 (breast line MDA468; Homo sapiens, 72 h): 5.54

CCNC(=O)Nc1ccc(-c2nc(N3CCOCC3)c3cnn(C4CCN(C(=O)c5cccnc5)CC4)c3n2)cc1 [Example 307, 1-ethyl-3-(4-{4-morpholin-4-yl-1-[1-(pyridin-3-ylcarbonyl)piperidin-4-yl]-1H-pyrazolo[3,4-d]pyrimidin-6-yl}phenyl)urea]
pIC50 (PI3K): 6.36
pIC50 (prostate line LNCap; Homo sapiens, LNCaP, 72 h): 7.22
pIC50 (breast line MDA468; Homo sapiens, 72 h): 6.70

Cn1ccc2cc(-c3nc(N4CCOCC4)c4cnn(C5CCN(Cc6ccccc6)CC5)c4n3)ccc21 [Compound 89]
pIC50 (PI3K): 5.28
pIC50 (prostate line LNCap; Homo sapiens, LNCaP, 72 h): 4.82
pIC50 (breast line MDA468; Homo sapiens, 72 h): 4.70

CCNC(=O)Nc1ccc(-c2nc(N3CCOCC3)c3cnn(C4CCN(C(=O)OCC)CC4)c3n2)cc1 [Compound 820, ethyl 4-(6-{4-[(ethylcarbamoyl)amino]phenyl}-4-morpholin-4-yl-1H-pyrazolo[3,4-d]pyrimidin-1-yl)piperidine-1-carboxylate]
pIC50 (PI3K): 6.15
pIC50 (prostate line LNCap; Homo sapiens, LNCaP, 72 h): > 7.57
pIC50 (breast line MDA468; Homo sapiens, 72 h): 6.89

CCNC(=O)Nc1ccc(-c2nc(N3CCOCC3)c3cnn(C4CCN(Cc5ccccc5)CC4)c3n2)cc1F [Compound 596, 1-{4-[1-(1-benzylpiperidin-4-yl)-4-morpholin-4-yl-1H-pyrazolo[3,4-d]pyrimidin-6-yl]-2-fluorophenyl}-3-ethylurea]
pIC50 (PI3K): 6.31
pIC50 (prostate line LNCap; Homo sapiens, LNCaP, 72 h): 6.64
pIC50 (breast line MDA468; Homo sapiens, 72 h): 5.60

CCn1nc(C#CCN(C)C)c2c(N3CCOCC3)nc(-c3ccc(NC(=O)NC)cc3)nc21 [Compound 955, 1-(4-{3-[3-(dimethylamino)prop-1-yn-1-yl]-1-ethyl-4-morpholin-4-yl-1Hpyrazolo[3,4-d]pyrimidin-6-yl}phenyl)-3-methylurea]
pIC50 (PI3K): 7.60
pIC50 (prostate line LNCap; Homo sapiens, LNCaP, 72 h): 6.74
pIC50 (breast line MDA468; Homo sapiens, 72 h): 6.30

O=C(NCCF)Nc1ccc(-c2nc(N3CCOCC3)c3cnn(C4CCN(Cc5cccnc5)CC4)c3n2)cc1F [Compound 619, 1-(2-fluoroethyl)-3-(2-fluoro-4-{4-morpholin-4-yl-1-[1-(pyridin-3-ylmethyl)piperidin-4-yl]-1H-pyrazolo[3,4-d]pyrimidin-6-yl}phenyl)urea]
pIC50 (PI3K): 6.21
pIC50 (prostate line LNCap; Homo sapiens, LNCaP, 72 h): 6.85
pIC50 (breast line MDA468; Homo sapiens, 72 h): 5.89

COC(=O)N1CCC(n2ncc3c(N4CCOC(C)C4)nc(-c4ccc(NC(=O)NCCO)cc4)nc32)CC1 (stereo not drawn) [Compound 845, methyl 4-[6-(4-{[(2-hydroxyethyl)carbamoyl]amino}phenyl)-4-(2-methylmorpholin-4-yl)-1H-pyrazolo[3,4-d]pyrimidin-1-yl]piperidine-1-carboxylate]
pIC50 (PI3K): 6.40
pIC50 (prostate line LNCap; Homo sapiens, LNCaP, 72 h): 5.96
pIC50 (breast line MDA468; Homo sapiens, 72 h): 5.80

C=CC(=O)Nc1ccc(-c2nc(N3CCOCC3)c3cn[nH]c3n2)cc1 [Compound 526, N-[4-(4-morpholin-4-yl-1H-pyrazolo[3,4-d]pyrimidin-6-yl)phenyl]acrylamide]
pIC50 (PI3K): 6.22
pIC50 (prostate line LNCap; Homo sapiens, LNCaP, 72 h): 5.47
pIC50 (breast line MDA468; Homo sapiens, 72 h): 5.15

O=C1Cc2cc(-c3nc(N4CCOCC4)c4cnn(-c5ccccc5)c4n3)ccc2N1 [Compound 677, 5-(4-morpholin-4-yl-1-phenyl-1H-pyrazolo[3,4-d]pyrimidin-6-yl)-1,3-dihydro-2H-indol-2-one]
pIC50 (PI3K): 5.99
pIC50 (prostate line LNCap): < 4.22
pIC50 (breast line MDA468): < 4.22

CC(=O)Nc1ccc(-c2nc(N3CCOCC3)c3cnn(Cc4ccccc4)c3n2)cc1 [Compound 180]
pIC50 (PI3K): 6.39
pIC50 (prostate line LNCap; Homo sapiens, LNCaP, 72 h): 5.70
pIC50 (breast line MDA468; Homo sapiens, 72 h): 5.24

NC(=O)Nc1ccc(-c2nc(N3CCOCC3)c3cnn(C4CCN(C(=O)c5ccccc5)CC4)c3n2)cc1 [Example 382, 1-{4-[1-(1-benzoylpiperidin-4-yl)-4-morpholin-4-yl-1H-pyrazolo[3,4-d]pyrimidin-6-yl]phenyl}urea]
pIC50 (PI3K): 7.07
pIC50 (prostate line LNCap; Homo sapiens, LNCaP, 72 h): 6.77
pIC50 (breast line MDA468; Homo sapiens, 72 h): 6.70

c1ccc(CN2CCC(n3ncc4c(N5CCOCC5)nc(-c5cc6ccccc6s5)nc43)CC2)cc1 [Example 67]
pIC50 (PI3K): 5.54
pIC50 (prostate line LNCap; Homo sapiens, LNCaP, 72 h): 5.00
pIC50 (breast line MDA468; Homo sapiens, 72 h): 4.92

CCCOC(=O)N1CCC(n2ncc3c(N4CCOCC4)nc(-c4ccc(NC(=O)NCC)cc4)nc32)CC1 [Compound 852, propyl 4-(6-{4-[(ethylcarbamoyl)amino]phenyl}-4-morpholin-4-yl-1H-pyrazolo[3,4-d]pyrimidin-1-yl)piperidine-1-carboxylate]
pIC50 (PI3K): 6.24
pIC50 (prostate line LNCap; Homo sapiens, LNCaP, 72 h): 7.10
pIC50 (breast line MDA468; Homo sapiens, 72 h): 6.29

c1ccc(-n2ncc3c(N4CCOCC4)nc(-c4ccc[nH]4)nc32)cc1 [Compound 6]
pIC50 (PI3K): 5.87
pIC50 (prostate line LNCap; Homo sapiens, LNCaP, 72 h): 5.62
pIC50 (breast line MDA468; Homo sapiens, 72 h): 4.96

Reference: patent US20080234262A1 (Wyeth, priority 2007, published 2008)
